From ChEMBL document CHEMBL1151084, “Synthesis and biological properties of quaternized N-methylation analogs of D-Arg-2-dermorphin tetrapeptide” (Bioorg Med Chem Lett, 1994)
Where a SMILES comes first, the peptide text is derived from it.

Tests used:
[1] = target: Delta-type opioid receptor (Rattus norvegicus, UniProt P33533); assay: Binding affinity against delta-opioid receptor by using [3H]DADLE as radioligand in rat brain; format: tissue-based
Cavia porcellus = species: Cavia porcellus; assay: In vitro bioactivity on electrically induced smooth muscle contraction of guinea pig ileum by GPI assay; format: functional
Mus musculus [2] = assay: In vivo antinociceptive effect in mice by PBQ writhing test upon subcutaneous administration; Range is (0.88-1.56); format: functional; details: sc
Mu-type opioid receptor = Mu-type opioid receptor (Rattus norvegicus, UniProt P33535); assay: Binding affinity against mu-opioid receptor by using [3H]DAGO as radioligand in rat brain; format: tissue-based
Sequence of Mu-type opioid receptor (P33535 whole entry): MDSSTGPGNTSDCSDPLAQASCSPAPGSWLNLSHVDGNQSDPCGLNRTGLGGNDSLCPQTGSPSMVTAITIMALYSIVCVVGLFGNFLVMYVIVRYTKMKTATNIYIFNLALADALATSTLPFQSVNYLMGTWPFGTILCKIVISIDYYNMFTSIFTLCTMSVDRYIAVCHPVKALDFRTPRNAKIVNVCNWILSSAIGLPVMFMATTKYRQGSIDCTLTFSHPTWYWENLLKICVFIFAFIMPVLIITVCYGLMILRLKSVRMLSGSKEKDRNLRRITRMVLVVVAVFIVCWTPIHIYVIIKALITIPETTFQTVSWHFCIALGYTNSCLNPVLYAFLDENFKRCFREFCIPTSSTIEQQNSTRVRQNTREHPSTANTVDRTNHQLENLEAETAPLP

Mus musculus [3] = assay: In vivo antinociceptive effect in mice by PBQ writhing test upon subcutaneous administration; Range is (1.64-3.24); format: functional; details: sc
Mus musculus [4] = assay: In vivo antinociceptive effect in mice by PBQ writhing test upon subcutaneous administration: Range is (0.39-0.59); format: functional; details: sc
Mus musculus [5] = assay: In vivo antinociceptive effect in mice by PBQ writhing test upon subcutaneous administration; Range is (0.52-0.741); format: functional; details: sc

Sequence of Delta-type opioid receptor (P33533 whole entry): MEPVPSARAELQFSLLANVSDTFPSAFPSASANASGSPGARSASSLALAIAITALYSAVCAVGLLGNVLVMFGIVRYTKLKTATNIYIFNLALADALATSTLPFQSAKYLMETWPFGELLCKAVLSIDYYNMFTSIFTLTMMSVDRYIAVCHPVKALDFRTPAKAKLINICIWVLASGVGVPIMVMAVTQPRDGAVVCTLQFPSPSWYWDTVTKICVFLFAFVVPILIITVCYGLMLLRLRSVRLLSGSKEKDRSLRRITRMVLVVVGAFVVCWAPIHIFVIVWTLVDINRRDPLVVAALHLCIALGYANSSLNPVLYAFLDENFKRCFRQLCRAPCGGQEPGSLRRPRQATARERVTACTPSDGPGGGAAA

Compound	Ki [1]	IC50 (Cavia porcellus)	ED50 (Mus musculus [2])	Ki (Mu-type opioid receptor)	ED50 (Mus musculus [3])	ED50 (Mus musculus [4])	ED50 (Mus musculus [5])
C[N+](C)(C)CCCC[C@H](NC(=O)[C@H](Cc1ccccc1)NC(=O)[C@@H](CCCNC(=N)N)NC(=O)[C@@H](N)Cc1ccc(O)cc1)C(N)=O	3550 nM	91.9 nM	1.18 mg/kg	1.12 nM	–	–	–
C[N+](C)(C)CC[C@H](NC(=O)[C@H](Cc1ccccc1)NC(=O)[C@H](CCCN=C(N)N)NC(=O)[C@@H](N)Cc1ccc(O)cc1)C(N)=O	5860 nM	125 nM	–	7.52 nM	–	–	–
C[N+](C)(C)[C@@H](Cc1ccc(O)cc1)C(=O)N[C@H](CCCN=C(N)N)C(=O)N[C@@H](Cc1ccccc1)C(=O)N[C@@H](CCCN)C(N)=O	> 100000 nM	> 100000 nM	–	1920 nM	–	–	–
C[N+](C)(C)[C@@H](Cc1ccc(O)cc1)C(=O)N[C@H](CCCN=C(N)N)C(=O)N[C@@H](Cc1ccccc1)C(=O)N[C@@H](CCCCN)C(N)=O	> 100000 nM	2470 nM	–	207 nM	–	–	–
C[N+](C)(C)CC[C@H](NC(=O)[C@H](Cc1ccccc1)NC(=O)[C@H](CCCNC(=N)N)NC(=O)[C@H](Cc1ccc(O)cc1)[N+](C)(C)C)C(N)=O	> 100000 nM	3120 nM	–	1300 nM	–	–	–
C[N+](C)(C)CCC[C@H](NC(=O)[C@H](Cc1ccccc1)NC(=O)[C@@H](CCCN=C(N)N)NC(=O)[C@@H](N)Cc1ccc(O)cc1)C(N)=O	450 nM	130 nM	–	2.35 nM	2.3 mg/kg	–	–
NCCCC[C@H](NC(=O)[C@H](Cc1ccccc1)NC(=O)[C@@H](CCCN=C(N)N)NC(=O)[C@@H](N)Cc1ccc(O)cc1)C(N)=O	2360 nM	50.6 nM	–	0.38 nM	–	0.47 mg/kg	–
NC(=O)[C@H](CCNC(=O)[C@H](Cc1ccccc1)NC(=O)[C@H](CCCN=C(N)N)NC(=O)[C@@H](N)Cc1ccc(O)cc1)NC(=O)[C@H](Cc1ccccc1)NC(=O)[C@H](CCCN=C(N)N)NC(=O)[C@@H](N)Cc1ccc(O)cc1 (HELM PEPTIDE1{Y.R.F.[Dab].[am]}|PEPTIDE2{Y.R.F}$PEPTIDE1,PEPTIDE2,4:R3-3:R2$$$V2.0)	497 nM	14.2 nM	–	0.51 nM	–	–	0.61 mg/kg
